Source: patent US10246453B2, “Benzenesulfonamide compounds and their use as therapeutic agents” (Xenon Pharmaceuticals Inc., priority 2016, dated 2019)

Target: NaV1.5 (Homo sapiens (Human), UniProt Q14524)
Test: in vitro
Conditions: pH 7.4

Sequence of NaV1.5 (Q14524 other isoform, or with tags, fused parts or gaps): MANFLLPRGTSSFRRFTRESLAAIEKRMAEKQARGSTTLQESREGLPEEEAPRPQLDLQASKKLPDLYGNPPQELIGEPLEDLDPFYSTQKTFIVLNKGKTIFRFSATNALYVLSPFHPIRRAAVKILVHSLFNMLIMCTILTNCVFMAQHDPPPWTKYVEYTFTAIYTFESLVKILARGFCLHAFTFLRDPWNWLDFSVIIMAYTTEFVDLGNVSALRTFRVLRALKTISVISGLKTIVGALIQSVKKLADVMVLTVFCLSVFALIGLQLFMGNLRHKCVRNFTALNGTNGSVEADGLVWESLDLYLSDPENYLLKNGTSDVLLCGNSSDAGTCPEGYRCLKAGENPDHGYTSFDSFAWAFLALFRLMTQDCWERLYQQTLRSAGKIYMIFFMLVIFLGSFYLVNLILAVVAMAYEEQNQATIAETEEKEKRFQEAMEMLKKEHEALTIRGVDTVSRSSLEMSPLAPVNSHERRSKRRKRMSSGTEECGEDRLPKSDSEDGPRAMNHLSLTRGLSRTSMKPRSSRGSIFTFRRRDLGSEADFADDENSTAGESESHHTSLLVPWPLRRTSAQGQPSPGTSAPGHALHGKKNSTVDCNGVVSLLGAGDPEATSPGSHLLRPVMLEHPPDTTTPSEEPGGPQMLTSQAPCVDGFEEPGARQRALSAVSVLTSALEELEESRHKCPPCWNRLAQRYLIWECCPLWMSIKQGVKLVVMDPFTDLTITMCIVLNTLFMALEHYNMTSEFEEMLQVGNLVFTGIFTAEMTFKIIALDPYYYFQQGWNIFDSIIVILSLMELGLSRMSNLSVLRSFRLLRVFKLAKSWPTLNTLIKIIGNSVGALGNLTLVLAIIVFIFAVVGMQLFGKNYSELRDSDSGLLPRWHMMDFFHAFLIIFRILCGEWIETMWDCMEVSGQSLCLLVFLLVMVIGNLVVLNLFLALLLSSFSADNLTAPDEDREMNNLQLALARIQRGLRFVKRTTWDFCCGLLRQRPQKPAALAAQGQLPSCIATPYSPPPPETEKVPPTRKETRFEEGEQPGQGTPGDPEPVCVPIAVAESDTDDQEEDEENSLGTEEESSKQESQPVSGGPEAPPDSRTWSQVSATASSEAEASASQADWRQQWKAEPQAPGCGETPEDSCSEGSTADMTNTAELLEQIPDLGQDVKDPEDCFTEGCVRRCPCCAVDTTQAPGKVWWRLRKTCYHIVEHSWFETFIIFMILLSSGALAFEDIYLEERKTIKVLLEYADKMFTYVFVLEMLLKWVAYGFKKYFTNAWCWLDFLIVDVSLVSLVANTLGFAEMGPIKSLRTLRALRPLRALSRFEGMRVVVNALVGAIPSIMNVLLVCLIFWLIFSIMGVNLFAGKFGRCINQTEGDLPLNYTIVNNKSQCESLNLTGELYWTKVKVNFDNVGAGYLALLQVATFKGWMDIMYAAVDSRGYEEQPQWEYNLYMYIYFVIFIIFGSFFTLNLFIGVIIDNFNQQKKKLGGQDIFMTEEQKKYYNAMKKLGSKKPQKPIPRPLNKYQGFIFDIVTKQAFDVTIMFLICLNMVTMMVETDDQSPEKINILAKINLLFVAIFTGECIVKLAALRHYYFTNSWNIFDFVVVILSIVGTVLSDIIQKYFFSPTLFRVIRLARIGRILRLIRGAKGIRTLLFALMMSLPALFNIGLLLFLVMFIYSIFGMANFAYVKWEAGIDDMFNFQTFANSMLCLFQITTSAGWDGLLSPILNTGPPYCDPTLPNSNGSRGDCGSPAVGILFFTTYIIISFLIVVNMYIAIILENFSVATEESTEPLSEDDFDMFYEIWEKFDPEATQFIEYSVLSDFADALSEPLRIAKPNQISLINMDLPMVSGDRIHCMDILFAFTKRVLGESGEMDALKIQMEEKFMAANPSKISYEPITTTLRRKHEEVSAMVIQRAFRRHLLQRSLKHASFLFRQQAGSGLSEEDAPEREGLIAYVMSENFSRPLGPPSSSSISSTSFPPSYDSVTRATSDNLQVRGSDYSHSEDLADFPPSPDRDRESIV

`C[C@@H]1[C@H](N(C)c2cc(F)c(S(=O)(=O)Nc3cscn3)cc2Cl)CCN1Cc1ccccc1` (racemic) [Example 309, rac-4-(((2R,3R)-1-benzyl-2-methylpyrrolidin-3-yl)(methyl)amino)-5-chloro-2-fluoro-N-(thiazol-4-yl)benzenesulfonamide] showed an IC50 at 1 h of 7.35 µM.
